Where two headings read alike, the source gives them in different places.
Tests used:
[1] = system: Botrytis cinerea; assay: Inhibition of spore germination, Eppendorf tube assay (Examples I and II); assay type: cell-based; settings: for expected percent inhibition for an additive response (Limpel's formula) at 0.5 µg/mL: read-out: Ee, expected effect from an additive response according to Limpel's formula, percent inhibition; for ED50 of fungicide (dose effective for 50% inhibition): Table 9
[2] = system: Fusarium oxysporum strain FOP1; assay: Inhibition of spore germination, ELISA plate assay (Examples V-XIV, XVII); assay type: cell-based; settings: Table 29; concentration of miconazole for 50% inhibition, alone or with enzyme at its ED10 concentration
Procedure: (§1) The concentration where fungal cell wall degrading enzyme individually provides a specified percentage fungal inhibition or where antifungal fungal cell membrane affecting compound individually provides a specific percentage fungal inhibition can be determined as follows: Assays are performed under sterile conditions. Equal volumes of spore suspensions, 3× potato dextrose broth, and the test solution or suspension in 5 mM Tris-HCl (pH 6.0) or 5 mM potassium phosphate buffer (pH 6.7) are mixed. The control is the same as the test solution except for the control the antifungal agent is omitted. The assay mixtures (total volume 45 or 30 μl) are incubated on flat-bottomed ELISA plates, each containing 96 wells, with 2,000 to 3,000 spores per well, at 25° C. After 22 to 30 hours, the plates are placed under an inverted microscope. The percentage of conidia germinating is determined as the percentage of the first 100 spores randomly found in a well. In addition, the lengths of 20 germ tubes are measured and averaged. All experiments are performed twice, with three replicates for each treatment. The inhibition values obtained in the two experiments are combined and averaged, and standard deviations are calculated from the 6 data points. The values obtained for the control are taken as 0% inhibition and all other values are divided by the values obtained for the control and multiplied by 100% to obtain percent inhibition. Determination of concentration corresponding to a particular percent inhibition is carried out by subjecting dose-response curves to regression analysis by using a binomial regression of the third order, with R^2 ranging between 0.95 and 0.99.
(§2) Assays were carried out by the procedure described in the summary of the invention section. Dose response curves were obtained by probit analysis of data collected from two separate experiments with each experiment involving three treatment replicates.
(§3) Dose response curves were determined for each antifungal fungal cell membrane affecting compound and for each fungal cell wall degrading enzyme singly. Then each fungal cell wall degrading enzyme at a concentration giving 10% inhibition when used alone was combined with increasing amounts of antifungal fungal cell membrane affecting compound. Then the concentration of antifungal fungal cell membrane affecting compound causing the ED50 for each combination was calculated by probit analysis of data collected from two experiments with three treatment replicates for each experiment. Assays for inhibition of spore germination were carried out as described in the summary of invention section above.
The relative level of synergism (RS below) for each combination was calculated by applying Limpel's formula: Ee=X+Y−(XY/100) as described in Richer, D. L, Pestic. Sci. 19, 309-315, 1987. In Limpel's formula, X and Y are the percentages of inhibition relative to each compound used alone and Ee is the expected effect for an additional (non-synergistic) effect. If the combination of the two agents produces an observed effect (Eo) greater than Ee, synergism exists, and as the difference between Eo and Ee increases, the level of synergism is greater. In this experiment, the X value (percentage inhibition by fungal cell wall degrading enzyme when used alone was chosen to be 10 (10% inhibition of spore germination when used alone) and the observed effect, Eo, was 50 (i.e., 50% inhibition of spore germination). The Y values were obtained from the determined concentrations of antifungal cell membrane affecting compound causing the ED50 for a combination and the dose response curves for the antifungal cell membrane affecting compound used alone—i.e., the Y value was the percent inhibition for the antifungal fungal cell membrane affecting compound when used alone for the concentration of antifungal fungal cell membrane affecting compound that was determined to cause the ED50 for the combination. Ee values were then calculated from Limpel's formula. […]

[3] = system: B. cinerea strain 12; assay: Inhibition of spore germination, ELISA plate assay (Examples III-XVI, XVIII); assay type: cell-based, Botrytis cinerea; settings: Table 21; concentration of miconazole for 50% inhibition, alone or with enzyme at its ED10 concentration
Procedure: as §1, §2
Each of 8 antifungal fungal cell membrane affecting compounds were used in combination with each of 8 or 6 fungal cell wall degrading enzymes to provide 50% inhibition (ED50) of B. cinerea strain 12 spore germination. Each fungal cell wall degrading enzyme was used at a concentration giving 10% inhibition of spore germination when used alone in combination with an amount of antifungal fungal cell membrane affecting compound so the combination gave 50% inhibition of spore germination.
as §3
The relative level of synergism (RS below) for each combination was calculated by applying Limpel's formula: Ee=X+Y−(XY/100) as described in Richer, D. L, Pestic. Sci. 19, 309-315, 1987. In Limpel's formula, X and Y are the percentages of inhibition relative to each compound used alone and Ee is the expected effect for an additional (non-synergistic) effect. If the combination of the two agents produces an observed effect (Eo) greater than Ee, synergism exists, and as the difference between Eo and Ee increases, the level of synergism is greater. […]

[4] = Solubility, guidance for forming solutions
Excerpt: Compositions for use in the systems herein are readily formulated by admixing the fungal cell wall degrading enzymes and the antifungal fungal cell membrane affecting compounds with non-toxic carriers appropriate for the particular use for a composition, e.g., agriculturally acceptable carriers for agricultural uses and pharmaceutically acceptable carriers for medicinal uses. They may be formulated as liquids (solutions or suspensions) or as solids. Since the fungal cell wall degrading enzymes need free water for activity, water must be present at the time of function. […] Water is a preferred vehicle where components are soluble in it. […] Organic solvents can also be used and may be required in some cases if a solution is desired. Guidance for forming solutions follows. […] Suspension can also be employed.

Clc1ccc(COC(Cn2ccnc2)c2ccc(Cl)cc2Cl)c(Cl)c1 (stereo not drawn) [Miconazole, miconazole]
inhibition at 0.5 µg/mL ([1]; Botrytis cinerea, Table 4, enzyme 0 μg ml^−1 (fungicide alone), flusilazole 5 ng ml^−1, miconazole 0.5 μg ml^−1, read-out: % inhibition): 19% | inhibition at 0.5 µg/mL ([1]; Botrytis cinerea, Table 5, endochitinase from G. virens strain 41 at 25 μg ml^−1, with flusilazole 5 ng ml^−1, miconazole 0.5 μg ml^−1 or none (enzyme alone), read-out: % inhibition): 99% | inhibition at 0.5 µg/mL ([1]; Botrytis cinerea, Table 5, enzyme 0 μg ml^−1 (fungicide alone), flusilazole 5 ng ml^−1, miconazole 0.5 μg ml^−1, read-out: % inhibition): 19% | inhibition at 0.5 µg/mL ([1]; Botrytis cinerea, Table 6, enzyme 0 μg ml^−1 (fungicide alone), flusilazole 5 ng ml^−1, miconazole 0.5 μg ml^−1, read-out: % inhibition): 19% | inhibition at 0.5 µg/mL ([1]; Botrytis cinerea, Table 7, enzyme 0 μg ml^−1 (fungicide alone), flusilazole 5 ng ml^−1, miconazole 0.5 μg ml^−1, read-out: % inhibition): 19% | expected percent inhibition for an additive response (Limpel's formula) at 0.5 µg/mL ([1]; Botrytis cinerea, with Chitob. (P1) 25 μg ml^−1, flusilazole 5 ng ml^−1, miconazole 0.5 μg ml^−1): 27.9% | inhibition at 0.5 µg/mL ([1]; Botrytis cinerea, with Chitob. (P1) 25 μg ml^−1, flusilazole 5 ng ml^−1, miconazole 0.5 μg ml^−1, read-out: Io, percent inhibition observed): 85% | expected percent inhibition for an additive response (Limpel's formula) at 0.5 µg/mL ([1]; Botrytis cinerea, with Endoc. (41) 25 pg ml^−1 (so in the source), flusilazole 5 ng ml^−1, miconazole 0.5 μg ml^−1): 19% | inhibition at 0.5 µg/mL ([1]; Botrytis cinerea, with Endoc. (41) 25 pg ml^−1 (so in the source), flusilazole 5 ng ml^−1, miconazole 0.5 μg ml^−1, read-out: Io, percent inhibition observed): 66% | expected percent inhibition for an additive response (Limpel's formula) at 0.5 µg/mL ([1]; Botrytis cinerea, with Endoc. (P1) 25 μg ml^−1, flusilazole 5 ng ml^−1, miconazole 0.5 μg ml^−1): 42.5% | inhibition at 0.5 µg/mL ([1]; Botrytis cinerea, with Endoc. (P1) 25 μg ml^−1, flusilazole 5 ng ml^−1, miconazole 0.5 μg ml^−1, read-out: Io, percent inhibition observed): 100% | expected percent inhibition for an additive response (Limpel's formula) at 0.5 µg/mL ([1]; Botrytis cinerea, with Glucan. (P1) 25 μg ml^−1, flusilazole 5 ng ml^−1, miconazole 0.5 μg ml^−1): 23% | inhibition at 0.5 µg/mL ([1]; Botrytis cinerea, with Glucan. (P1) 25 μg ml^−1, flusilazole 5 ng ml^−1, miconazole 0.5 μg ml^−1, read-out: Io, percent inhibition observed): 70% | inhibition at 0.5 µg/mL ([1]; Table 4, endochitinase from T. harzianum strain P1 at 75 μg ml^−1, with flusilazole 5 ng ml^−1, miconazole 0.5 μg ml^−1 or none (enzyme alone), read-out: % inhibition): 100% | inhibition at 0.5 µg/mL ([1]; Table 6, chitobiosidase from T. harzianum strain P1 at 75 μg ml^−1, with flusilazole 5 ng ml^−1, miconazole 0.5 μg ml^−1 or none (enzyme alone), read-out: % inhibition): 100% | inhibition at 0.5 µg/mL ([1]; Table 7, glucan 1,3-β-glucosidase from T. harzianum strain P1 at 100 μg ml^−1, with flusilazole 5 ng ml^−1, miconazole 0.5 μg ml^−1 or none (enzyme alone), read-out: % inhibition): 100% | ED50 of fungicide (dose effective for 50% inhibition) ([1]; no endochitinase (0 μg ml^−1)): 3.0 µg/mL | ED50 of fungicide (dose effective for 50% inhibition) ([1]; with endochitinase from T. harzianum strain P1 at 10 μg ml^−1): 0.06 µg/mL | ED50 of fungicide (dose effective for 50% inhibition) ([1]; with endochitinase from T. harzianum strain P1 at 25 μg ml^−1): 0.04 µg/mL | ED50 of fungicide ([1]; Table 10, no chitobiosidase (0 μg ml^−1)): 3.0 µg/mL | ED50 of fungicide ([1]; Table 10, with chitobiosidase from T. harzianum strain P1 at 25 μg ml^−1): 0.06 µg/mL | ED50 of fungicide ([1]; Table 10, with chitobiosidase from T. harzianum strain P1 at 50 μg ml^−1): 0.045 µg/mL | ED50 of fungicide ([1]; Table 10, with chitobiosidase from T. harzianum strain P1 at 75 μg ml^−1): 0.04 µg/mL | ED50 of fungicide ([1]; Table 10, with chitobiosidase from T. harzianum strain P1 at 100 μg ml^−1): 0.03 µg/mL | ED50 of fungicide ([1]; Table 11, no glucosidase (0 μg ml^−1)): 3.0 µg/mL | ED50 of fungicide ([1]; Table 11, with glucan 1,3-β-glucosidase from T. harzianum strain P1 at 25 μg ml^−1): 0.27 µg/mL | ED50 of fungicide ([1]; Table 11, with glucan 1,3-β-glucosidase from T. harzianum strain P1 at 50 μg ml^−1): 0.04 µg/mL | ED50 of fungicide ([1]; Table 11, with glucan 1,3-β-glucosidase from T. harzianum strain P1 at 75 μg ml^−1): 0.0018 µg/mL | ED50 of fungicide ([1]; Table 12, no endochitinase (0 μg ml^−1)): 3.0 µg/mL | ED50 of fungicide ([1]; Table 12, with endochitinase from G. virens strain 41 at 25 μg ml^−1): 0.092 µg/mL | ED50 of fungicide ([1]; Table 12, with endochitinase from G. virens strain 41 at 50 μg ml^−1): 0.06 µg/mL | ED50 of fungicide ([1]; Table 12, with endochitinase from G. virens strain 41 at 75 μg ml^−1): 0.04 µg/mL | ED50 of fungicide ([1]; Table 12, with endochitinase from G. virens strain 41 at 100 μg ml^−1): 0.025 µg/mL | ED50 [2]: 5.0 (4.5-5.5) ng ml^−1 | ED50 [3]: 3.0 (2-4) ng ml^−1 | solubility (solvent in which the substance dissolves) [4]: dissolves in 50% (v:v) ethanol

— patent US6512166B1, “Combinations of fungal cell wall degrading enzyme and fungal cell membrane affecting compound” (priority 1991, dated 2003)
